Measured values as given in patent publication US8653080B2, “Methods for screening and compounds that protect against amyloid diseases” (Salk Institute for Biological Studies, priority 2009, dated 2014).

Assays:
[1] = system: CL660 animals; experiment: vGFP signal scoring in transgenic C. elegans (CL660) expressing Aβ, liquid culture; assay type: in vivo; conditions: compounds at 100 μM in S-media; 36 hours into adulthood; FIG. 18; control DMSO 0.1%
Protocol: Identification of compounds that inhibit aggregation-mediated proteotoxicity was carried out using transgenic C. elegans strain, which expresses human Aβ1-42 within body wall muscles under the direction of the myo-3 promoter cause by induction at 25 C and inhibition of smg-1 activity. This induction in the absence of an effective inhibitor causes association of a heat shock protein-GFP fusion construct with the Aβ1-42 (a schematic of this model is shown in FIG. 2).
Twenty-four hours after placing the L1-stage worms into the fridge, the plates were removed for fileting. Fifteen to twenty-five worms each were placed into wells of a microtiter plate containing compounds to be tested in an aqueous environment or a corresponding control. Only worms that were moving normally were filleted. The worms were incubated for approximately 36 hours or until L3 stage was reached. Aβ toxicity was then generated by growing the worms at 25 C for 18 hours which effects smg-1 activity. […] Typically the worms settled to the bottom of the well and were counted manually.
(§1) Animals were grown at 15° C. until adulthood. Gravid adults were suspended and bleached; eggs were resuspended in M9 salt solution and allowed to hatch for 24 hours at 15° C. Compounds were added to S-media at 100 μM concentration and then aliquoted to 48-well Costar plates at 400 μL per well. As a control, DMSO was added to S-media at 0.1% concentration. L1 hatched larvae were added to each well at 50-100 animals per 25 μL aliquot. Worms were thus grown in liquid media until reaching the third larval stage (L3) at 15° C. At L3 worms were shifted to 25° C. to begin biogenesis of Aβ protein. Observation began 24 hours later when the animals have reached adulthood (timepoint=0 hrs). Animals were scored as either with or without vGFP signal, regardless of intensity level.

[2] = system: CL660 animals; experiment: vGFP scoring in CL660 animals fed bacteria expressing RNAi (daf-16, hsf-1) plus compound; assay type: in vivo, C. elegans; conditions: for effect of DAF-16 knockdown on the beneficial effects (vGFP) of the compound: daf-16 RNAi, FIG. 19; for effect of HSF-1 knockdown on vGFP expression with the compound: hsf-1 RNAi, FIG. 20
Protocol: as §1
In order to determine a pathway the compounds are acting upon, experiments were performed with genetics already known to be involved in the handling of Aβ aggregation. The insulin/IGF-1 pathway plays a role in the handling of cellular stress. DAF-2 is the sole insulin/IGF-1 receptor in C. elegans and depletion of DAF-2 results in long-lived, stress resistant worms. The Aβ protein applies a biochemical stress to cellular activity as shown by the hsp-16.2 activity in response to its presence. […] DAF-16 encodes a FOXO transcription factor and is required for the lifepan extension in worms fed daf-2RNAi. HSF-1 is also required for the lifespan extension seen in worms fed daf-2 RNAi.
CL660 animals were fed bacteria expressing RNAi suspended in S-basal solution.

| SMILES | vGFP in CL660 animals compared to control [1] | effect of DAF-16 knockdown on the beneficial effects (vGFP) of the compound [2] | effect of HSF-1 knockdown on vGFP expression with the compound [2] |
| --- | --- | --- | --- |
| CCC(CC)N1C(=O)[C@H](COCc2ccccc2)NC(=O)C1C(=O)NCc1ccccc1 (some centres unmarked) [F7] | reduced vGFP | partially suppressed the beneficial effects | no effect on vGFP expression |
| O=C(NCc1ccccc1)C1C(=O)N[C@@H](COCc2ccccc2)C(=O)N1Cc1cccnc1 (some centres unmarked) [E7] | reduced vGFP | – | – |
| CCCCN1C(=O)[C@H](COCc2ccccc2)NC(=O)C1C(=O)NCc1ccccc1 (some centres unmarked) [D7] | reduced vGFP | partially suppressed the beneficial effects | no effect on vGFP expression |
| O=C(NCc1ccccc1)C1C(=O)N[C@@H](COCc2ccccc2)C(=O)N1C1CCCC1 (some centres unmarked) [H7] | reduced vGFP | – | – |
